Assay results from PMC6644700 (ACS chemical biology, 2019).

Biological target: T1, Nicotinamide N-methyltransferase (NNMT) (Homo sapiens, UniProt P40261, C165A)
T1 sequence (P40261 1-264 C165A): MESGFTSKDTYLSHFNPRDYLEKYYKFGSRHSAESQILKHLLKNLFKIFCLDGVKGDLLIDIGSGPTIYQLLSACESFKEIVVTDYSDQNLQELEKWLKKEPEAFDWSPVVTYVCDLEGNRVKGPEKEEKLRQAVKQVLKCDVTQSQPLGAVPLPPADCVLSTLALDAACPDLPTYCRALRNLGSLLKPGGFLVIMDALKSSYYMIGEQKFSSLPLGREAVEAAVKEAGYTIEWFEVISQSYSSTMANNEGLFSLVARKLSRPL
Assay: suicide inactivation of purified mutant with SAM
Type: biochemical

SMILES	suicide inactivation of purified mutant with SAM
Clc1ccncc1 [compound 2, 4-chloropyridine]	By contrast, the C165A mutant remained sensitive.
NC(=O)c1cnccc1Cl [compound 3, 4-chloronicotinamide]	By contrast, the C165A mutant remained sensitive.
